Laboratory results: the supplement of paper PMC10307832

Key:
Assay in all cases: relative viability (nuclei count vs DMSO), 5 days (fraction); higher = more cells survive
[1] = test system: NCI-H727
Method in brief: (§1)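 Relative viability is defined as nuclei in treated wells over nuclei in vehicle wells. Duplicate plates were run and medians reported. Lung cancer cell lines in 1536-well plates were dosed by pin tool one day after seeding, with one drug or with a fixed anchor-drug dose plus five library-drug doses (not always all listed) in √10 steps, and nuclei were counted after 5 days.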

[2] = test system: PC-14
Method in brief: as §1

[3] = test system: NCI-H1915
Method in brief: as §1

[4] = test system: HARA
Method in brief: as §1

[5] = test system: NCI-H1734
Method in brief: as §1

[6] = test system: H3255
Method in brief: as §1

[7] = test system: ABC-1
Method in brief: as §1

[8] = test system: HCC-15
Method in brief: as §1

[9] = test system: LU99A
Method in brief: as §1

[10] = test system: NCI-H1437
Method in brief: as §1

[11] = test system: NCI-H460
Method in brief: as §1

[12] = test system: NCI-H1666
Method in brief: as §1

[13] = test system: LC-2-ad
Method in brief: as §1

[14] = test system: NCI-H1944
Method in brief: as §1

[15] = test system: SW 900
Method in brief: as §1

[16] = test system: NCI-H1648
Method in brief: as §1

[17] = test system: RERF-LC-KJ
Method in brief: as §1

[18] = test system: NCI-H650
Method in brief: as §1

[19] = test system: NCI-H2347
Method in brief: as §1

[20] = test system: HCC-366
Method in brief: as §1

[21] = test system: CAL-12T
Method in brief: as §1

[22] = test system: NCI-H838
Method in brief: as §1

Compound: Oc1nc(-c2ccc(C(F)(F)F)cc2)nc2c1CSCC2 [XAV939] + NC(=O)Nc1cc(-c2cccc(F)c2)sc1C(=O)N[C@H]1CCCNC1 [AZD7762] (partner 0.2 µM)
- relative viability ([1]; first compound 0.08 µM): 0.514
- relative viability ([1]; first compound 0.8 µM): 0.626
- relative viability ([1]; first compound 2.53 µM): 0.783
- relative viability ([2]; first compound 0.08 µM): 0.352
- relative viability ([2]; first compound 0.253 µM): 0.333
- relative viability ([2]; first compound 0.8 µM): 0.304
- relative viability ([2]; first compound 2.53 µM): 0.345
- relative viability ([3]; first compound 0.08 µM): 0.898
- relative viability ([3]; first compound 0.253 µM): 0.674
- relative viability ([3]; first compound 0.8 µM): 0.693
- relative viability ([3]; first compound 2.53 µM): 0.665
- relative viability ([4]; first compound 0.08 µM): 0.671
- relative viability ([4]; first compound 0.253 µM): 0.305
- relative viability ([4]; first compound 0.8 µM): 0.271
- relative viability ([4]; first compound 2.53 µM): 0.294
- relative viability ([5]; first compound 0.08 µM): 0.617
- relative viability ([5]; first compound 0.253 µM): 0.515
- relative viability ([5]; first compound 0.8 µM): 0.59
- relative viability ([5]; first compound 2.53 µM): 0.51
- relative viability ([6]; first compound 0.08 µM): 0.858
- relative viability ([6]; first compound 0.253 µM): 0.753
- relative viability ([6]; first compound 0.8 µM): 0.773
- relative viability ([6]; first compound 2.53 µM): 0.669
- relative viability ([7]; first compound 0.253 µM): 0.537
- relative viability ([7]; first compound 0.8 µM): 0.768
- relative viability ([7]; first compound 2.53 µM): 0.676
- relative viability ([8]; first compound 0.08 µM): 1.31
- relative viability ([8]; first compound 0.253 µM): 1.15
- relative viability ([8]; first compound 0.8 µM): 1.21
- relative viability ([8]; first compound 2.53 µM): 1.08
- relative viability ([9]; first compound 0.08 µM): 0.495
- relative viability ([9]; first compound 0.253 µM): 0.394
- relative viability ([9]; first compound 0.8 µM): 0.339
- relative viability ([9]; first compound 2.53 µM): 0.32
- relative viability ([10]; first compound 0.08 µM): 1.17
- relative viability ([10]; first compound 0.253 µM): 1.07
- relative viability ([10]; first compound 0.8 µM): 1.1
- relative viability ([10]; first compound 2.53 µM): 1.02
- relative viability ([11]; first compound 0.08 µM): 0.765
- relative viability ([11]; first compound 0.253 µM): 0.631
- relative viability ([11]; first compound 0.8 µM): 0.636
- relative viability ([11]; first compound 2.53 µM): 0.551
- relative viability ([12]; first compound 0.08 µM): 0.885
- relative viability ([12]; first compound 0.253 µM): 0.656
- relative viability ([12]; first compound 0.8 µM): 0.735
- relative viability ([12]; first compound 2.53 µM): 0.621
- relative viability ([13]; first compound 0.08 µM): 0.865
- relative viability ([13]; first compound 0.253 µM): 0.711
- relative viability ([13]; first compound 0.8 µM): 0.806
- relative viability ([13]; first compound 2.53 µM): 0.724
- relative viability ([14]; first compound 0.08 µM): 0.589
- relative viability ([14]; first compound 0.253 µM): 0.539
- relative viability ([14]; first compound 0.8 µM): 0.477
- relative viability ([14]; first compound 2.53 µM): 0.382
- relative viability ([15]; first compound 0.253 µM): 0.616
- relative viability ([15]; first compound 0.8 µM): 0.599
- relative viability ([15]; first compound 2.53 µM): 0.501
- relative viability ([16]; first compound 0.253 µM): 0.501
- relative viability ([16]; first compound 0.8 µM): 0.699
- relative viability ([16]; first compound 2.53 µM): 0.598
- relative viability ([17]; first compound 0.08 µM): 0.925
- relative viability ([17]; first compound 0.253 µM): 0.711
- relative viability ([17]; first compound 0.8 µM): 0.848
- relative viability ([17]; first compound 2.53 µM): 0.69
- relative viability ([18]; first compound 0.08 µM): 1.04
- relative viability ([18]; first compound 0.253 µM): 0.809
- relative viability ([18]; first compound 0.8 µM): 1.02
- relative viability ([18]; first compound 2.53 µM): 0.773
- relative viability ([19]; first compound 0.08 µM): 0.803
- relative viability ([19]; first compound 0.253 µM): 0.612
- relative viability ([19]; first compound 0.8 µM): 0.796
- relative viability ([19]; first compound 2.53 µM): 0.58
- relative viability ([20]; first compound 0.08 µM): 0.423
- relative viability ([20]; first compound 0.253 µM): 0.211
- relative viability ([20]; first compound 0.8 µM): 0.188
- relative viability ([20]; first compound 2.53 µM): 0.132
- relative viability ([21]; first compound 0.08 µM): 0.654
- relative viability ([21]; first compound 0.253 µM): 0.595
- relative viability ([21]; first compound 0.8 µM): 0.609
- relative viability ([21]; first compound 2.53 µM): 0.507
- relative viability ([22]; first compound 0.08 µM): 0.93
- relative viability ([22]; first compound 0.253 µM): 0.842
- relative viability ([22]; first compound 0.8 µM): 0.923
- relative viability ([22]; first compound 2.53 µM): 0.799
